Assay results: patent US20080076926A1, “Process for the preparation of 4-hydroxythieno[2,3-b]pyridine-5-carbonitriles” (priority 2006, published 2008)

SMILES	melting point
Cc1csc2[nH]cc(C#N)c(=O)c12 [Example 3, 3-methyl-4-oxo-4,7-dihydrothieno[2,3-b]pyridine-5-carbonitrile]	285 °C
CC(C)c1c(I)sc2ncc(C#N)c(Cl)c12 [Example 8, 4-chloro-2-iodo-3-isopropylthieno[2,3-b]pyridine-5-carbonitrile]	177 to 179 °C
Cc1cc2c(Cl)c(C#N)cnc2s1 [Example 10, 4-chloro-2-methylthieno[2,3-b]pyridine-5-carbonitrile]	110 to 112 °C

Continued, values first:

melting point	SMILES
202 to 204 °C	N#Cc1cnc2sc(-c3ccccc3)cc2c1Cl [Example 16, 4-chloro-2-phenylthieno[2,3-b]pyridine-5-carbonitrile]
> 255 °C	N#Cc1cnc2sc(Br)cc2c1O [Example 30, 2-bromo-4-hydroxythieno[2,3-b]pyridine-5-carbonitrile]
